How the values were obtained:
Assay in all cases: relative viability (nuclei count vs DMSO), 5 days (fraction); higher = more cells survive
Bortezomib + Navitoclax = compound: CC(C)C[C@H](NC(=O)[C@H](Cc1ccccc1)NC(=O)c1cnccn1)B(O)O [Bortezomib] + CC1(C)CCC(c2ccc(Cl)cc2)=C(CN2CCN(c3ccc(C(=O)NS(=O)(=O)c4ccc(N[C@H](CCN5CCOCC5)CSc5ccccc5)c(S(=O)(=O)C(F)(F)F)c4)cc3)CC2)C1 [Navitoclax] (partner 0.5 µM)
Method in brief: (§1)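 Relative viability equals treated-well nuclei counts divided by vehicle-well nuclei counts. Counts came from 4× images of lung cancer cell lines grown in 1536-well plates for 5 days after pin-tool dosing on the day after seeding. Dosing used one drug alone or a fixed anchor-drug dose plus five library-drug doses (not always all listed) in √10 steps, and values are medians of duplicate plates.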

Bortezomib + Phenformin = compound: CC(C)C[C@H](NC(=O)[C@H](Cc1ccccc1)NC(=O)c1cnccn1)B(O)O [Bortezomib] + N=C(N)NC(=N)NCCc1ccccc1 [Phenformin] (partner 250 µM)
Method in brief: as §1

Obatoclax + Palbociclib = compound: COC1=CC(c2cc3ccccc3[nH]2)=N/C1=C\c1[nH]c(C)cc1C [Obatoclax] + CC(=O)c1c(C)c2cnc(Nc3ccc(N4CCNCC4)cn3)nc2n(C2CCCC2)c1=O [Palbociclib] (partner 0.5 µM)
Method in brief: as §1

Obatoclax + Pemetrexed = compound: COC1=CC(c2cc3ccccc3[nH]2)=N/C1=C\c1[nH]c(C)cc1C [Obatoclax] + Nc1nc2[nH]cc(CCc3ccc(C(=O)N[C@@H](CCC(=O)O)C(=O)O)cc3)c2c(=O)[nH]1 [Pemetrexed] (partner 0.2 µM)
Method in brief: as §1

Row | Cell Line | relative viability (Bortezomib + Navitoclax; first compound 0.000632 µM) | relative viability (Bortezomib + Navitoclax; first compound 0.002 µM) | relative viability (Bortezomib + Navitoclax; first compound 0.006325 µM) | relative viability (Bortezomib + Navitoclax; first compound 0.02 µM) | relative viability (Bortezomib + Phenformin; first compound 0.0002 µM) | relative viability (Bortezomib + Phenformin; first compound 0.000632 µM) | relative viability (Bortezomib + Phenformin; first compound 0.002 µM) | relative viability (Bortezomib + Phenformin; first compound 0.006325 µM) | relative viability (Bortezomib + Phenformin; first compound 0.02 µM) | relative viability (Obatoclax + Palbociclib; first compound 0.01 µM) | relative viability (Obatoclax + Palbociclib; first compound 0.03162 µM) | relative viability (Obatoclax + Palbociclib; first compound 0.1 µM) | relative viability (Obatoclax + Palbociclib; first compound 0.3162 µM) | relative viability (Obatoclax + Palbociclib; first compound 1 µM) | relative viability (Obatoclax + Pemetrexed; first compound 0.01 µM) | relative viability (Obatoclax + Pemetrexed; first compound 0.03162 µM) | relative viability (Obatoclax + Pemetrexed; first compound 0.1 µM) | relative viability (Obatoclax + Pemetrexed; first compound 0.3162 µM) | relative viability (Obatoclax + Pemetrexed; first compound 1 µM) | relative viability (Bortezomib + Navitoclax; first compound 0.0002 µM)
1 | NCI-H23 | 0.495 | 0.834 | 0.212 | 0.126 | 0.79 | 0.652 | 0.785 | 0.277 | 0.114 | 0.49 | 0.548 | 0.496 | 0.475 | 0.39 | 0.665 | 0.636 | 0.717 | 0.561 | 0.468 | 
2 | NCI-H1355 | 0.95 | 0.737 | 0.604 | 0.139 | 0.446 | 0.414 | 0.493 | 0.381 | 0.176 | 0.398 | 0.391 | 0.371 | 0.387 | 0.369 | 1.05 | 0.994 | 1.06 | 1 | 0.966 | 0.85
3 | COR-L23 | 1.02 | 0.528 | 0.0681 | 0.0713 | 0.466 | 0.429 | 0.4 | 0.0535 | 0.0571 | 0.306 | 0.303 | 0.228 | 0.128 | 0.122 | 0.193 | 0.188 | 0.197 | 0.203 | 0.182 | 0.933
4 | NCI-H2023 | 0.994 | 0.936 | 0.17 | 0.0898 | 0.494 | 0.411 | 0.389 | 0.0877 | 0.0739 | 0.414 | 0.361 | 0.358 | 0.213 | 0.218 | 0.3 | 0.217 | 0.24 | 0.188 | 0.134 | 0.967

Source: the supplement of paper PMC10307832
